The compounds below were run against human ACC2 (Homo sapiens (Human), UniProt O00763) (assay: ACC2 assay, spectrophotometric 384 well assay (NADH-linked kinetic method)). Conditions: human ACC2 construct lacking the 128 N-terminal amino acids; coupled lactate dehydrogenase/pyruvate kinase reaction, 340 nm, 25° C.
Type: biochemical
Method: Spectrophotometric 384 Well Assay
Malonyl CoA formation by acetyl CoA carboxylases is stoichometrically linked to the consumption of ATP. ACC2 activity is measured in a NADH-linked kinetic method measuring ADP generated during the ACC reaction using a coupled lactate dehydrogenase/pyruvate kinase reaction.
For biological testing, a human ACC2 construct which lacks the 128 amino acids at the N-terminus for increased solubility (nt 385-6966 in Genbank entry AJ575592) is cloned. The protein is then expressed in insect cells using a baculoviral expression system. Protein purification is performed by anion exchange.
All compounds are dissolved in dimethyl sulfoxide (DMSO) to a concentration of 10 mM.
The enzymatic reaction is then started by addition of a mixture of NADH, acetyl Coenzyme A (both 2000 μM f.c.) and ATP (500 uM f.c.). The decrease of the optical density (slope S) is then determined at 25° C. at a wavelength of 340 nm over 15 minutes in a spectrophotometric reader.
Each assay microtiter plate contains wells with vehicle instead of compound as controls for the non-inhibited enzyme (100% CTL; ‘HIGH’) and wells without acetyl-CoA as controls for non-specific NADH degradation (0% CTL; ‘LOW’).
The slope S is used for calculation of % CTL=(S(compound)−S(‘LOW’))/(S(‘HIGH’)−S(‘LOW’))*100.
For IC50 value determination, the sample slope in the presence of the test compound after subtraction of the low controls (S(compound)−S(‘LOW’)) are used.
An IC50 value is derived from the compound slopes at different dosages after subtraction of the low controls (S(compound)−S(‘LOW’)) by non-linear regression curve fitting (equation y=(A+((B−A)/(1+((C/x)^D))))).

human ACC2, sequence (O00763 129-2458): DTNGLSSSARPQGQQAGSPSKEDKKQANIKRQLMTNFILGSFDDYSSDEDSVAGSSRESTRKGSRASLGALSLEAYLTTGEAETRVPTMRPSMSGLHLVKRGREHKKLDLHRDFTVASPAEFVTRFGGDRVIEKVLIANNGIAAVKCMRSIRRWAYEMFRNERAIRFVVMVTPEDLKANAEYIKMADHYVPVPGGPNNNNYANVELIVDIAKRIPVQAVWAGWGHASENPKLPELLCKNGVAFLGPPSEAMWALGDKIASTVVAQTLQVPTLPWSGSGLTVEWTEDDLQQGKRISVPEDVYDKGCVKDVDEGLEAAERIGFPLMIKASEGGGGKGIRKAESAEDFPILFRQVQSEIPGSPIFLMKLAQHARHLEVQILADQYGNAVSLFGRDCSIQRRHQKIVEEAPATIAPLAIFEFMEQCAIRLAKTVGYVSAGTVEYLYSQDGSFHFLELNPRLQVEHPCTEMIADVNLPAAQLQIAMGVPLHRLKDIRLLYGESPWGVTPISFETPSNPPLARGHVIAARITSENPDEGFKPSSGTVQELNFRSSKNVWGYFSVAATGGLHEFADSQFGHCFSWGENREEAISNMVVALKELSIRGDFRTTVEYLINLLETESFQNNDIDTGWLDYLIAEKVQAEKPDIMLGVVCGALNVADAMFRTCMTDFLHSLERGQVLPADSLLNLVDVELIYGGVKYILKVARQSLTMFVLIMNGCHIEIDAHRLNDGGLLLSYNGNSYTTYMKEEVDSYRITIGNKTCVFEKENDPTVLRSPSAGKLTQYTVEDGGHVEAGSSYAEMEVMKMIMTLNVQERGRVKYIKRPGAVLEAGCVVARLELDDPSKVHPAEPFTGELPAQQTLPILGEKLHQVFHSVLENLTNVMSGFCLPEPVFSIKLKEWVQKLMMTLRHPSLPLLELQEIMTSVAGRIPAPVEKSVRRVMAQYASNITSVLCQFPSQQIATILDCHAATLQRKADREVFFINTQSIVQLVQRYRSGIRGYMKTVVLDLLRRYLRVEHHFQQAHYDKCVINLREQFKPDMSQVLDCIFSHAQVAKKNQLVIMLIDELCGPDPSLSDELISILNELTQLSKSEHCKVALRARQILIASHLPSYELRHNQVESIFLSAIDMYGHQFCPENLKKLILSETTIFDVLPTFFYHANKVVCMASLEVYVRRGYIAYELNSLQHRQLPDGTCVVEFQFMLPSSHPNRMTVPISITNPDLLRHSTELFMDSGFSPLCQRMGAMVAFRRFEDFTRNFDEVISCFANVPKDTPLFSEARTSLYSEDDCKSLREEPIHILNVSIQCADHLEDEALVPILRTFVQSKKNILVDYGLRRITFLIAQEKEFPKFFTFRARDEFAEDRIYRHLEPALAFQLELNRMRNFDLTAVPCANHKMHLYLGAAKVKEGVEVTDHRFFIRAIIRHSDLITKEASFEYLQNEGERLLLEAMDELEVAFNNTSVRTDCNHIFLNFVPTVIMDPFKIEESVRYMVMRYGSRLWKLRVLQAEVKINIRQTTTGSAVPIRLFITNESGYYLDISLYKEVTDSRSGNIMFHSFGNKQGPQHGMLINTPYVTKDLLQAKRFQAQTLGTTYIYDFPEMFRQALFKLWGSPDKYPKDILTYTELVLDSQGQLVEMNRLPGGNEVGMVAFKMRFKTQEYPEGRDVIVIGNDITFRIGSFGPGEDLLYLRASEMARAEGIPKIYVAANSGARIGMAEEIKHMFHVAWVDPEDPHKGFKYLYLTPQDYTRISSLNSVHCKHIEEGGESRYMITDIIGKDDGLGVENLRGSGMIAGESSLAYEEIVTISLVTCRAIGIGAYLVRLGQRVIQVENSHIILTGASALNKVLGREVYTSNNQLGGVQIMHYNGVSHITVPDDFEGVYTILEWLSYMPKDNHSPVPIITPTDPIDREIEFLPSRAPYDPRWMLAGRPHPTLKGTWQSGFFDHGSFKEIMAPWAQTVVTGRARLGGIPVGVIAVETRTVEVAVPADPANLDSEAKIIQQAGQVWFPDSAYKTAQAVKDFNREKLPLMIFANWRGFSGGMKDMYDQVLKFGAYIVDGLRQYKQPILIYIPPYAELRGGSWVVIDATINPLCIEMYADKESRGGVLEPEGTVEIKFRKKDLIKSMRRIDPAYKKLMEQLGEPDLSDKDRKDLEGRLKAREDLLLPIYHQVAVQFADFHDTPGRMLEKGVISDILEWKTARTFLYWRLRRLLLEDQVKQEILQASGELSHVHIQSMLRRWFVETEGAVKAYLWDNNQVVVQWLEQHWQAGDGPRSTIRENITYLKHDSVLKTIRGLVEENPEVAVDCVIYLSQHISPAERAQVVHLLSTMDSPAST

Row | SMILES | IC50
1 | CCCOc1cnc(N2CCC(Oc3ccc([C@H](C)NC(C)=O)cc3)C2)c(Cl)c1 (stereo partly drawn) [Example 1.71] | 88 nM
2 | CCCOc1cc(N2CCC(Oc3ccc([C@H](C)NC(C)=O)cc3)C2)c(F)cn1 (stereo partly drawn) [Example 1.72] | 70 nM
3 | CC(=O)N[C@@H](C)c1ccc(OC2CCN(c3cc(OCC4CC4)ncc3F)C2)cc1 (stereo partly drawn) [Example 1.73] | 59 nM
4 | CC(=O)N[C@@H](C)c1ccc(OC2CCN(c3cc(OC(C)C)ncc3F)C2)cc1 (stereo partly drawn) [Example 1.74] | 100 nM
5 | CC(=O)N[C@@H](C)c1ccc(OC2CCN(c3cc(OCC(C)C)ncc3F)C2)cc1 (stereo partly drawn) [Example 1.75] | 30 nM
6 | CC(=O)N[C@@H](C)c1ccc(OC2CCN(c3cc(OCC4CC4(F)F)ncc3F)C2)cc1 (stereo partly drawn) [Example 1.76] | 63 nM
7 | CC(=O)N[C@@H](C)c1ccc(OC2CCN(c3ncc(OCC4CC4(F)F)cc3Cl)C2)cc1 (stereo partly drawn) [Example 1.77] | 29 nM
8 | CCOc1cnc(N2CCC(Oc3ccc([C@H](C)NC(C)=O)cc3)C2)c(Cl)c1 (stereo partly drawn) [Example 1.78] | 198 nM
9 | CC(=O)N[C@@H](C)c1ccc(OC2CCN(c3cccc(C4(S(C)(=O)=O)CC4)n3)C2)cc1 (stereo partly drawn) [Example 1.79] | 950 nM
10 | COc1cc(OCC2CC2)cnc1N1CCC(Oc2ccc([C@H](C)NC(C)=O)cc2)C1 (stereo partly drawn) [Example 1.80] | 484 nM
11 | COc1cc(OCC2CC2(F)F)cnc1N1CCC(Oc2ccc([C@H](C)NC(C)=O)cc2)C1 (stereo partly drawn) [Example 1.81] | 425 nM
12 | C[C@H](NC(=O)c1cncs1)c1ccc(O[C@@H]2CCN(c3ccc(OCCCF)cn3)C2)cc1 [Example 1.82] | 110 nM
13 | CSc1ccc(N2CCC(Oc3ccc([C@H](C)NC(C)=O)cc3)C2)cn1 (stereo partly drawn) [Example 1.83] | 2990 nM
14 | CC(=O)N[C@@H](C)c1ccc(OC2CCN(c3cccc(C4CCCC4)n3)C2)cc1 (stereo partly drawn) [Example 1.84] | 115 nM
15 | Cc1cccc(N2CC[C@@H](Oc3ccc([C@H](C)NC(=O)c4cncs4)cc3)C2)n1 [Example 1.85] | 107 nM
16 | CC(=O)N[C@@H](C)c1ccc(OC2CCN(c3cccc(C4CCC4)n3)C2)cc1 (stereo partly drawn) [Example 1.86] | 89 nM
17 | CC(=O)N[C@@H](C)c1ccc(OC2CCN(c3ccc(OCC(C)(C)F)cn3)C2)cc1 (stereo partly drawn) [Example 1.87] | 677 nM
18 | CC(=O)N[C@@H](C)c1ccc(OC2CCN(c3ccc(OCCCF)nc3)C2)cc1 (stereo partly drawn) [Example 1.88] | 423 nM
19 | CC(=O)N[C@@H](C)c1ccc(OC2CCN(c3cc(OCC4CC4(F)F)ncc3C)C2)cc1 (stereo partly drawn) [Example 1.89] | 278 nM
20 | CCCOc1cc(N2CCC(Oc3ccc([C@H](C)NC(C)=O)cc3)C2)c(C)cn1 (stereo partly drawn) [Example 1.90] | 379 nM
21 | CC(=O)N[C@@H](C)c1ccc(OC2CCN(c3ccc(OCC(C)(F)F)cn3)C2)cc1 (stereo partly drawn) [Example 1.91] | 661 nM
22 | CC(=O)N[C@@H](C)c1ccc(OC2CCN(c3cc(OCC(F)F)ncc3C)C2)cc1 (stereo partly drawn) [Example 1.92] | 524 nM

Row | SMILES | IC50
23 | CC(=O)N[C@@H](C)c1ccc(OC2CCN(c3ccc(OCCC(F)F)cn3)C2)cc1 (stereo partly drawn) [Example 1.93] | 107 nM
24 | CC(=O)N[C@@H](C)c1ccc(OC2CN(c3ccc(OCC4CC4(F)F)cn3)C[C@H]2F)cc1 (stereo partly drawn) [Example 1.94] | 94 nM
25 | CCOc1nccc(N2CC[C@@H](Oc3ccc([C@H](C)NC(C)=O)cc3)C2)c1OC [Example 1.95] | 82 nM
26 | CC(=O)N[C@@H](C)c1ccc(O[C@@H]2CCN(c3ccc(OCC4CC4)cn3)C2)cc1 [Example 1.96] | 114 nM
27 | CCN(C)c1ccnc(N2CC[C@@H](Oc3ccc([C@H](C)NC(C)=O)cc3)C2)c1F [Example 1.97] | 970 nM
28 | CC(=O)N[C@@H](C)c1ccc(O[C@@H]2CCN(c3nccc(N(C)C)c3F)C2)cc1 [Example 1.98] | 967 nM
29 | CC(=O)N[C@@H](C)c1ccc(O[C@@H]2CCN(c3nccc(N4CCCC4)c3F)C2)cc1 [Example 1.99] | 201 nM
30 | CC(=O)N[C@@H](C)c1ccc(O[C@@H]2CCN(c3nccc(N(C)CC4CC4)c3F)C2)cc1 [Example 1.100] | 385 nM
31 | CC(=O)N[C@@H](C)c1ccc(O[C@@H]2CCN(c3ccnc(N4CCC4)c3F)C2)cc1 [Example 1.101] | 92 nM
32 | CC(=O)N[C@@H](C)c1ccc(O[C@@H]2CCN(c3ccnc(N4CCCCC4)c3F)C2)cc1 [Example 1.102] | 61 nM
33 | CCCN(C)c1nccc(N2CC[C@@H](Oc3ccc([C@H](C)NC(C)=O)cc3)C2)c1F [Example 1.103] | 70 nM
34 | CC(=O)N[C@@H](C)c1ccc(O[C@@H]2CCN(c3ccnc(N4CCC5(CC5)C4)c3F)C2)cc1 [Example 1.104] | 24 nM
35 | CC(=O)N[C@@H](C)c1ccc(O[C@@H]2CCN(c3ccnc(N4CC(F)(F)C4)c3F)C2)cc1 [Example 1.105] | 59 nM
36 | COCCN(C)c1nccc(N2CC[C@@H](Oc3ccc([C@H](C)NC(C)=O)cc3)C2)c1F [Example 1.106] | 69 nM
37 | CCCNc1nccc(N2CC[C@@H](Oc3ccc([C@H](C)NC(C)=O)cc3)C2)c1F [Example 1.107] | 52 nM
38 | CC(=O)N[C@@H](C)c1ccc(O[C@@H]2CCN(c3ccnc(N(C)CC(F)F)c3F)C2)cc1 [Example 1.108] | 42 nM
39 | COC1CN(c2nccc(N3CC[C@@H](Oc4ccc([C@H](C)NC(C)=O)cc4)C3)c2F)C1 [Example 1.109] | 155 nM
40 | CC(=O)N[C@@H](C)c1ccc(O[C@@H]2CCN(c3ccnc(N4CCC(F)(F)C4)c3F)C2)cc1 [Example 1.110] | 23 nM
41 | CC(=O)N[C@@H](C)c1ccc(O[C@@H]2CCN(c3ccnc(N(C)C(C)C)c3F)C2)cc1 [Example 1.111] | 112 nM
42 | CC(=O)N[C@@H](C)c1ccc(O[C@@H]2CCN(c3ccnc(N(C)CC(F)(F)F)c3F)C2)cc1 [Example 1.112] | 68 nM
43 | CC(=O)N[C@@H](C)c1ccc(O[C@@H]2CCN(c3ccnc(NC4CCCC4)c3F)C2)cc1 [Example 1.113] | 163 nM
44 | CC(=O)N[C@@H](C)c1ccc(O[C@@H]2CCN(c3ccnc(NCC4CC4)c3F)C2)cc1 [Example 1.114] | 43 nM

Row | SMILES | IC50
45 | CCNc1nccc(N2CC[C@@H](Oc3ccc([C@H](C)NC(C)=O)cc3)C2)c1F [Example 1.115] | 260 nM
46 | CC(=O)N[C@@H](C)c1ccc(O[C@@H]2CCN(c3ccnc(NCC(F)F)c3F)C2)cc1 [Example 1.116] | 177 nM
47 | CC(=O)N[C@@H](C)c1ccc(O[C@@H]2CCN(c3ccc(OC[C@@H]4CC4(F)F)cn3)C2)cc1 [Example 1.117] | 753 nM
48 | CC(=O)N[C@@H](C)c1ccc(O[C@@H]2CCN(c3ccc(OC[C@H]4CC4(F)F)cn3)C2)cc1 [Example 1.118] | 39 nM
49 | COCCNc1nccc(N2CC[C@@H](Oc3ccc([C@H](C)NC(C)=O)cc3)C2)c1F [Example 1.119] | 1330 nM
50 | COc1c(N2CC[C@@H](Oc3ccc([C@H](C)NC(C)=O)cc3)C2)ccnc1OCC(C)C [Example 1.120] | 32 nM
51 | CCCOc1nccc(N2CC[C@@H](Oc3ccc([C@H](C)NC(C)=O)cc3)C2)c1OC [Example 1.121] | 41 nM
52 | COc1cc(N2CC[C@@H](Oc3ccc([C@H](C)NC(C)=O)cc3)C2)cnc1OCC1CC1 [Example 1.122] | 2710 nM
53 | CC(=O)N[C@@H](C)c1ccc(O[C@@H]2CCN(c3ccc(OCC4CC(F)(F)C4)cn3)C2)cc1 [Example 1.123] | 228 nM
54 | CC(=O)N[C@@H](C)c1ccc(O[C@@H]2CCN(c3ccnc(N4CCC(F)(F)C4)c3C)C2)cc1 [Example 1.124] | 76 nM
55 | CC(=O)N[C@@H](C)c1ccc(O[C@@H]2CCN(c3ccnc(N4CCCC4)c3C)C2)cc1 [Example 1.125] | 402 nM
56 | CC(=O)N[C@@H](C)c1ccc(O[C@@H]2CCN(c3ccnc(N4CCC4)c3C)C2)cc1 [Example 1.126] | 597 nM
57 | COc1c(N2CC[C@@H](Oc3ccc([C@H](C)NC(C)=O)cc3)C2)ccnc1OCC1CC1 [Example 1.127] | 31 nM
58 | CCOc1ccc(N2CC[C@@H](Oc3ccc([C@H](C)NC(C)=O)cc3)C2)c(OC)n1 [Example 1.128] | 360 nM
59 | CCCN(C)c1nccc(N2CC[C@@H](Oc3ccc([C@H](C)NC(C)=O)cc3)C2)c1OC [Example 1.129] | 210 nM
60 | CCCOc1ccc(N2CC[C@@H](Oc3ccc([C@H](C)NC(C)=O)cc3)C2)c(OC)n1 [Example 1.130] | 233 nM
61 | CC(=O)N[C@@H](C)c1ccc(O[C@@H]2CCN(c3ccnc(N4CCC4)c3Cl)C2)cc1 [Example 1.131] | 76 nM
62 | CC(=O)N[C@@H](C)c1ccc(O[C@@H]2CCN(c3ccnc(N4CCC(F)(F)C4)c3Cl)C2)cc1 [Example 1.132] | 41 nM
63 | CC(=O)N[C@@H](C)c1ccc(O[C@@H]2CCN(c3cccc(N(C)CC(F)F)n3)C2)cc1 [Example 1.133] | 246 nM
64 | CC(=O)N[C@@H](C)c1ccc(O[C@@H]2CCN(c3cccc(N(C)C4CCC4)n3)C2)cc1 [Example 1.134] | 102 nM
65 | CCCNc1nccc(N2CC[C@@H](Oc3ccc([C@H](C)NC(C)=O)cc3)C2)c1Cl [Example 1.135] | 62 nM
66 | COc1c(N2CC[C@@H](Oc3ccc([C@H](C)NC(C)=O)cc3)C2)ccnc1N1CCCC1 [Example 1.136] | 476 nM
